Experimental data published in patent US6683055B1, “Low molecular weight inhibitors of complement proteases” (BASF Aktiengesellschaft, priority 1999, dated 2004).
Structures can show the parent of a compound that is named as a salt.

Experiments:
Format in all cases: biochemical
[1] = target: T1, C1r from human plasma, activated, two-chain form (Homo sapiens, UniProt P00736); assay: Color substrate test for C1r inhibition (Example A); conditions: amidolytic C1r activity, substrate Cbz-Gly-Arg-S-Bzl; read-out: C1R IC50 according to Example A
T1 construct: from tissue; host or cells: human plasma
T1 sequence (P00736 18-463 partner limits assumed): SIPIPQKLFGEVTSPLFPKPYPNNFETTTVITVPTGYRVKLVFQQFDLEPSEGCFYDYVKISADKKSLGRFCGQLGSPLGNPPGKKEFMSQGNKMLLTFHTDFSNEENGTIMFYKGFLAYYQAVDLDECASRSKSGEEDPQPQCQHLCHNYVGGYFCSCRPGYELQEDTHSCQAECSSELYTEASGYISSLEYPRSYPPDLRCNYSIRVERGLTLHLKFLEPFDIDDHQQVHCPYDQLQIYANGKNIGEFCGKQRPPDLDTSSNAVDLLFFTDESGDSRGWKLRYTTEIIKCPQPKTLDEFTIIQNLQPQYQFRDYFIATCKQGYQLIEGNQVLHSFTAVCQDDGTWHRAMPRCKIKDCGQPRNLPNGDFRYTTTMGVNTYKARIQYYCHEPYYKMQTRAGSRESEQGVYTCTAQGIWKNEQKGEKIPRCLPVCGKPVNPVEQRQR
T1 sequence (P00736 464-705 limits assumed): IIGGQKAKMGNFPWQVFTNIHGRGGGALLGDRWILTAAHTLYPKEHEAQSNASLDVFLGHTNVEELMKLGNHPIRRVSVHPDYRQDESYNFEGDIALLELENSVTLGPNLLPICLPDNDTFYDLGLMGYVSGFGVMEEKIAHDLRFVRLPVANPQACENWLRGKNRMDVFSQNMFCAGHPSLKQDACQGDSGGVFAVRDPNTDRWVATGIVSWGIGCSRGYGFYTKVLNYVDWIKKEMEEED
Excerpt: Color Substrate Test for C1r Inhibition

[2] = target: T2, C1s from human plasma, activated, two-chain form (Homo sapiens, UniProt P09871); assay: Color substrate test for C1s inhibition (Example B); conditions: amidolytic C1s activity, substrate Cbz-Gly-Arg-S-Bzl; read-out: C1S IC50 according to Example B
T2 construct: from tissue; host or cells: human plasma
T2 sequence (P09871 16-437 partner limits assumed): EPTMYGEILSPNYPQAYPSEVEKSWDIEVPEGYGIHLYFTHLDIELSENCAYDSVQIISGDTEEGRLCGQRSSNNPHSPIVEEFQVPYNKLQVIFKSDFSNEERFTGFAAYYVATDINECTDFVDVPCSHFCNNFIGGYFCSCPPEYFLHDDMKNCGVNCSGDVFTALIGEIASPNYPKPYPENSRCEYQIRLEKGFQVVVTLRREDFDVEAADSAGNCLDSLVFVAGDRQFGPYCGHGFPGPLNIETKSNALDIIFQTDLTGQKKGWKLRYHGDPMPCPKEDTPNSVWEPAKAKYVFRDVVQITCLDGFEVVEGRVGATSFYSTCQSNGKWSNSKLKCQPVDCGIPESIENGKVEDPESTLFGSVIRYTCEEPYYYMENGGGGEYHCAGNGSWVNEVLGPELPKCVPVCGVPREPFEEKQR
T2 sequence (P09871 438-688 limits assumed): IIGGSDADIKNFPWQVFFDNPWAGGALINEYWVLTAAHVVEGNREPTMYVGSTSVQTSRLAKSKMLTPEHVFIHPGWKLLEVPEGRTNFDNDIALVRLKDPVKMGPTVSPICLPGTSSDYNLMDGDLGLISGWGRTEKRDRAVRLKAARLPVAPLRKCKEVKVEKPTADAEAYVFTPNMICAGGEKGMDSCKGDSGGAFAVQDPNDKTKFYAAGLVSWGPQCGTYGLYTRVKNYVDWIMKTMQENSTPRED
Excerpt: Material and Methods: Color Subrate Test for C1s Inhibition

factor D = target: T3, factor D (Homo sapiens, UniProt P00746); assay: Inhibition of the protease factor D (Example D); conditions: substrate Z-Lys-SBzl, run along as inhibitor in the test
T3 construct: purchased Calbiochem 341273
Excerpt: Example D Testing of Inhibitors for Inhibition of the Protease Factor D In the alternative route of the complement system, factor D performs a central function. Owing to the low plasma concentration of factor D, the enzymatic step involving the cleavage of factor B by factor D constitutes the rate-determining step in the alternative route of complement activation. Owing to the limiting role which this enzyme plays in the alternative route, factor D is a target for the inhibition of the complement system. The commercial substrate Z-Lys-SBzl*HCl is converted by the enzyme factor D (literature: Kam, C. M. et al., J. Biol. Chem. 262, 1987, 3444-3451). The detection of the cleaved substrate is effected by reaction with Ellmann's reagent. The product formed is detected spectrophotometrically. The reaction can be monitored online. This permits measurements of enzyme kinetics. [table] The batches are pipetted together into microtiter plates. After mixing of buffer, substrate and Ellmann's reagent (possibly inhibitors), the enzyme reaction is started by adding in each case 5 μl of factor D. Incubation takes place at room temperature for 60 minutes. Measurement at 405 nm for 1 hour at 3 minute intervals The result is plotted graphically. […]

T3 sequence (P00746 26-253): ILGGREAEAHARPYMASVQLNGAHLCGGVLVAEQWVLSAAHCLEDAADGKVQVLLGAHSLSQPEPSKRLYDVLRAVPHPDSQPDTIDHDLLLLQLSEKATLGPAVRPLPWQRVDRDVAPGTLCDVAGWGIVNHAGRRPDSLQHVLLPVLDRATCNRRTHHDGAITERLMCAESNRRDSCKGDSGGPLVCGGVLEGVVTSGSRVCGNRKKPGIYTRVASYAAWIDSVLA

| IC50 [1] | IC50 [2] | inhibition of factor D (factor D) | Molecule |
| --- | --- | --- | --- |
| 40 µM | 20 µM |  | N=C(N)c1csc(CNC(=O)C2SCCN2C(=O)[C@@H](CC2CCCCC2)NCC(=O)O)c1 (stereo partly drawn) [Example 46, HOOC—CH2-(D)Cha-Thz-2-CO—NH—CH2-5-(3-am)-thioph.2HCl] |
| 10 µM | 50 µM |  | N=C(N)c1csc(CNC(=O)[C@@H]2CC3CCCCC3N2C(=O)[C@@H](CC2CCCCC2)NCC(=O)O)c1 (some centres unmarked) [Example 47, HOOC—CH2-(D)Cha-(L)Ohi-2-CO—NH—CH2-5-(3-am)-thioph.HCl] |
| 50 µM | 30 µM |  | N=C(N)c1csc(CNC(=O)[C@@H]2CC3CCCCC3N2C(=O)[C@H](NCC(=O)O)C2CCCCC2)c1 (some centres unmarked) [Example 48, HOOC—CH2-(D)Chg-(L)Ohi-2-CO—NH—CH2-5-(3-am)-thioph.HCl] |
| 1 µM | 1 µM |  | N=C(N)c1csc(CNC(=O)C2C=CCN2C(=O)C(NCC(=O)O)C2CCCCC2)c1Cl (stereo not drawn) [Example 49, HOOC—CH2-(D)Chg-Pyr-NH—CH2-5-(4-Cl-3-am)-thioph.CH3COOH] |
| 20 µM | 3 µM |  | N=C(N)c1csc(CNC(=O)C2C=CCN2C(=O)C(CC2CCCCC2)NCC(=O)O)c1Cl (stereo not drawn) [Example 50, HOOC—CH2(D)Cha-Pyr-NH—CH2-5-(4-Cl-3-am)-thioph.CH3COOH] |
| 40 µM | 3 µM |  | Cc1c(C(=N)N)csc1CNC(=O)[C@@H]1C=CCN1C(=O)[C@H](NCC(=O)O)C1CCCCC1 [Example 51, HOOC—CH2-(D)Chg-Pyr-NH—CH2-5-(4-Me-3-am)-thioph.CH3COOH] |
|  |  | effective inhibitor | N=C(N)c1ccc2cc(OC(=O)c3ccc(N=C(N)N)cc3)ccc2c1 [FUT-175] |
| 8 µM | 20 µM |  | HOOC—CH2-(D)Cha-Pyr-NH—CH2-5-(3-Me-2-am)-thioph.CH3COOH [Example 53] |
| 10 µM | 4 µM |  | HOOC—CH2-(D,L)Cpg-Pyr-NH—CH2-5-(3-Me-3-am)-thioph.CH3COOH [Example 52] |

Continued, molecule first:

| Molecule | IC50 [1] | IC50 [2] | inhibition of factor D (factor D) |
| --- | --- | --- | --- |
| N=C(N)c1coc(CNC(=O)[C@@H]2CCCN2C(=O)[C@@H](CC2CCCCC2)NCC(=O)O)c1 [Example 34, HOOC—CH2-(D)Cha-Pro-NH—CH2-5-(3-am)-fur.CH3COOH] | 70 µM | 20 µM |  |
| N=C(N)c1csc(CNC(=O)[C@@H]2C=CCN2C(=O)[C@@H](CC2CCCCC2)NCC(=O)O)c1 [Example 38, HOOC—CH2-(D)Cha-Pyr-NH—CH2-5-(3-am)-thioph.CH3COOH] | 10 µM | 5 µM |  |
| N=C(N)c1csc(CNC(=O)[C@@H]2CCN2C(=O)[C@H](NCC(=O)O)C2CCCCC2)c1 [Example 39, HOOC—CH2-(D)Chg-Aze-NH—CH2-5-(3-am)-thioph] | 2 µM | 10 µM |  |
| N=C(N)c1csc(CNC(=O)[C@@H]2C=CCN2C(=O)C(NCC(=O)O)C2CCCCCC2)c1 (some centres unmarked) [Example 41, HOOC—CH2-Cheg-Pyr-NH—CH2-5-(3-am)-thioph.CH3COOH] | 2 µM | 2 µM |  |
| N=C(N)c1csc(CNC(=O)[C@@H]2C=CCN2C(=O)C(NCC(=O)O)C2CCCC2)c1 (stereo partly drawn) [Example 42, HOOC—CH2-Cpg-Pyr-NH—CH2-5-(3-am)-thioph.CH3COOH] | 0.7 µM | 1 µM |  |
| N=C(N)c1csc(CNC(=O)[C@@H]2CCCN2C(=O)[C@H](NCC(=O)O)C2CCCCC2)c1 [Example 43, HOOC—CH2-(D)Chg-Pro-NH—CH2-5-(3-am).thioph.2HCl] | 6 µM | 10 µM |  |
| N=C(N)c1coc(CNC(=O)[C@@H]2C=CCN2C(=O)[C@@H](CC2CCCCC2)NCC(=O)O)c1 [Example 44, HOOC—CH2-(D)Cha-Pyr-NH—CH2-5-(3-am)-fur.CH3COOH] | 40 µM | 3 µM |  |
| N=C(N)c1csc(CNC(=O)C2SCCN2C(=O)[C@H](NCC(=O)O)C2CCCCC2)c1 (stereo partly drawn) [Example 45, HOOC—CH2-(D)Chg-Thz-2-CO—NH—CH2-5-(3-am)-thioph] | 6 µM | 20 µM |  |
| HOOC—CH2—CH2-(D)Cha-Pro-NH-CH2-5-(2-am)-thioph.CH3COOH [Example 30] | > 100 µM | 5 µM |  |
